Test results from the supplement of paper PMC11061612.

How the values were obtained:
Carboplatin = compound: C1CC(C1)(C(=O)[O-])C(=O)[O-].N.N.[Pt+2] [Carboplatin]; conditions: max 10 µM
Procedure, shortened: (§1)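 Cancer cell lines in 1536-well plates (7.5 μl DMEM/F12 or RPMI, 10% FBS) were held 24 hours at 37°C and 5% CO2 and then dosed for 72 hours at a final DMSO of typically 0.2%. Viability was taken from CellTiter-Glo 2.0 luminescence, scaled between blank-well and DMSO-well means. Curves were fitted as two-parameter logistic models with a non-linear mixed effects model, from which the single-agent IC50 was taken.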

AZD5363 = compound: C1CN(CCC1(C(=O)N[C@@H](CCO)C2=CC=C(C=C2)Cl)N)C3=NC=NC4=C3C=CN4 [AZD5363]; conditions: max 10 µM
Procedure, shortened: as §1

AZD1775 = compound: C=CCn1c(=O)c2cnc(Nc3ccc(N4CCN(C)CC4)cc3)nc2n1-c1cccc(C(C)(C)O)n1 [AZD1775]; conditions: max 3 µM
Procedure, shortened: as §1

Trametinib = compound: CC(=O)Nc1cccc(-n2c(=O)n(C3CC3)c(=O)c3c(Nc4ccc(I)cc4F)n(C)c(=O)c(C)c32)c1 [Trametinib]; conditions: max 1 µM
Procedure, shortened: as §1

Paclitaxel = compound: CC(=O)O[C@H]1C(=O)[C@@]2(C)[C@H]([C@H](OC(=O)c3ccccc3)[C@]3(O)C[C@H](OC(=O)[C@H](O)[C@@H](NC(=O)c4ccccc4)c4ccccc4)C(C)=C1C3(C)C)[C@]1(OC(C)=O)CO[C@@H]1C[C@@H]2O [Paclitaxel]; conditions: max 3 µM
Procedure, shortened: as §1

Palbociclib = compound: CC(=O)c1c(C)c2cnc(Nc3ccc(N4CCNCC4)cn3)nc2n(C2CCCC2)c1=O [Palbociclib]; conditions: max 10 µM
Procedure, shortened: as §1

AZD1390 = compound: CC(C)n1c(=O)n(C)c2cnc3cc(F)c(-c4ccc(OCCCN5CCCCC5)nc4)cc3c21 [AZD1390]; conditions: max 0.3 µM
Procedure, shortened: as §1

Venetoclax = compound: CC1(C)CCC(CN2CCN(c3ccc(C(=O)NS(=O)(=O)c4ccc(NCC5CCOCC5)c([N+](=O)[O-])c4)c(Oc4cnc5[nH]ccc5c4)c3)CC2)=C(c2ccc(Cl)cc2)C1 [Venetoclax]; conditions: max 1 µM
Procedure, shortened: as §1

Dasatinib = compound: CC1=C(C(=CC=C1)Cl)NC(=O)C2=CN=C(S2)NC3=CC(=NC(=N3)C)N4CCN(CC4)CCO [Dasatinib]; conditions: max 2 µM
Procedure, shortened: as §1

SG3199 = compound: CC1=CN2[C@@H](C1)C=NC3=CC(=C(C=C3C2=O)OC)OCCCCCOC4=C(C=C5C(=C4)N=C[C@@H]6CC(=CN6C5=O)C)OC [SG3199]; conditions: max 0.001 µM
Procedure, shortened: as §1

AZD2811 = compound: CCN(CCO)CCCOc1ccc2c(Nc3cc(CC(=O)Nc4cccc(F)c4)[nH]n3)ncnc2c1 [AZD2811]; conditions: max 1 µM
Procedure, shortened: as §1

SN-38 = compound: CCc1c2c(nc3ccc(O)cc13)-c1cc3c(c(=O)n1C2)COC(=O)[C@]3(O)CC [SN-38]; conditions: max 0.3 µM
Procedure, shortened: as §1

AZD0156 = compound: CN(C)CCCOc1ccc(-c2ccc3ncc4c(c3c2)n(C2CCOCC2)c(=O)n4C)cn1 [AZD0156]; conditions: max 3 µM
Procedure, shortened: as §1

AZD4320 = compound: CN(CC[C@H](CSC1=CC=CC=C1)NC2=C(C=C(C=C2)S(=O)(=O)NC(=O)C3=CC=C(C=C3)N4CCC(CC4)[C@H](C5=CC=CC=C5C6=CC=C(C=C6)Cl)O)S(=O)(=O)C(F)(F)F)CCO [AZD4320]; conditions: max 1 µM
Procedure, shortened: as §1

Alisertib = compound: COc1cc(Nc2ncc3c(n2)-c2ccc(Cl)cc2C(c2c(F)cccc2OC)=NC3)ccc1C(=O)O [Alisertib]; conditions: max 10 µM
Procedure, shortened: as §1

Etoposide = compound: COc1cc([C@@H]2c3cc4c(cc3[C@@H](O[C@@H]3O[C@@H]5CO[C@@H](C)O[C@H]5[C@H](O)[C@H]3O)[C@H]3COC(=O)[C@H]23)OCO4)cc(OC)c1O [Etoposide]; conditions: max 10 µM
Procedure, shortened: as §1

Gefitinib = compound: COc1cc2ncnc(Nc3ccc(F)c(Cl)c3)c2cc1OCCCN1CCOCC1 [Gefitinib]; conditions: max 10 µM
Procedure, shortened: as §1

Prexasertib = compound: COc1cccc(OCCCN)c1-c1cc(Nc2cnc(C#N)cn2)n[nH]1 [Prexasertib]; conditions: max 1 µM
Procedure, shortened: as §1

Doxorubicin = compound: COc1cccc2c1C(=O)c1c(O)c3c(c(O)c1C2=O)C[C@@](O)(C(=O)CO)C[C@@H]3O[C@H]1C[C@H](N)[C@H](O)[C@H](C)O1 [Doxorubicin]; conditions: max 1 µM
Procedure, shortened: as §1

AZD5153 = compound: COc1nnc2ccc(N3CCC(c4ccc(OCCN5CCN(C)C(=O)[C@H]5C)cc4)CC3)nn12 [AZD5153]; conditions: max 1 µM
Procedure, shortened: as §1

Lapatinib = compound: CS(=O)(=O)CCNCc1ccc(-c2ccc3ncnc(Nc4ccc(OCc5cccc(F)c5)c(Cl)c4)c3c2)o1 [Lapatinib]; conditions: max 10 µM
Procedure, shortened: as §1

AZD8186 = compound: C[C@@H](Nc1cc(F)cc(F)c1)c1cc(C(=O)N(C)C)cc2c(=O)cc(N3CCOCC3)oc12 [AZD8186]; conditions: max 10 µM
Procedure, shortened: as §1

Crizotinib = compound: C[C@@H](Oc1cc(-c2cnn(C3CCNCC3)c2)cnc1N)c1c(Cl)ccc(F)c1Cl [Crizotinib]; conditions: max 10 µM
Procedure, shortened: as §1

Savolitinib = compound: C[C@@H](c1ccc2nccn2c1)n1nnc2ncc(-c3cnn(C)c3)nc21 [Savolitinib]; conditions: max 1 µM
Procedure, shortened: as §1

AZD6738 = compound: C[C@@H]1COCCN1C2=NC(=NC(=C2)C3(CC3)[S@](=N)(=O)C)C4=C5C=CNC5=NC=C4 [AZD6738]; conditions: max 10 µM
Procedure, shortened: as §1

AZD5991 = compound: Cc1c2c(nn1C)CSCc1cc(n(C)n1)CSc1cc(c3ccccc3c1)OCCCc1c(C(=O)O)n(C)c3c-2c(Cl)ccc13 [AZD5991]; conditions: max 1 µM
Procedure, shortened: as §1

AZD7648 = compound: Cc1cc2ncnn2cc1Nc1ncc2c(n1)n(C1CCOCC1)c(=O)n2C [AZD7648]; conditions: max 10 µM
Procedure, shortened: as §1

Taselisib = compound: Cc1nc(-c2cn3c(n2)-c2ccc(-c4cnn(C(C)(C)C(N)=O)c4)cc2OCC3)n(C(C)C)n1 [Taselisib]; conditions: max 10 µM
Procedure, shortened: as §1

Selumetinib = compound: Cn1cnc2c(F)c(Nc3ccc(Br)cc3Cl)c(C(=O)NOCCO)cc21 [Selumetinib]; conditions: max 10 µM
Procedure, shortened: as §1

SRA737 = compound: N#Cc1cnc(Nc2cc(NC[C@H]3CNCCO3)c(C(F)(F)F)cn2)cn1 [SRA737]; conditions: max 10 µM
Procedure, shortened: as §1

MK-2206 = compound: NC1(c2ccc(-c3nc4ccn5c(=O)[nH]nc5c4cc3-c3ccccc3)cc2)CCC1 [MK-2206]; conditions: max 10 µM
Procedure, shortened: as §1

Gemcitabine = compound: Nc1ccn([C@@H]2O[C@H](CO)[C@@H](O)C2(F)F)c(=O)n1 [Gemcitabine]; conditions: max 0.3 µM
Procedure, shortened: as §1

[1] = compound: O=C(Nc1ccc2[nH]nc(-c3ccncc3)c2c1)[C@@H]1CCN(CC(=O)N2CCN(c3ccc(-c4ncccn4)cc3)CC2)C1; conditions: max 5 µM
Procedure, shortened: as §1

Olaparib = compound: O=C(c1cc(Cc2n[nH]c(=O)c3ccccc23)ccc1F)N1CCN(C(=O)C2CC2)CC1 [Olaparib]; conditions: max 10 µM
Procedure, shortened: as §1

5-Fluorouracil = compound: O=c1[nH]cc(F)c(=O)[nH]1 [5-Fluorouracil]; conditions: max 20 µM
Procedure, shortened: as §1

Row | Cell Line | IC50, cell viability 72 h (Carboplatin) | IC50, cell viability 72 h (AZD5363) | IC50, cell viability 72 h (AZD1775) | IC50, cell viability 72 h (Trametinib) | IC50, cell viability 72 h (Paclitaxel) | IC50, cell viability 72 h (Palbociclib) | IC50, cell viability 72 h (AZD1390) | IC50, cell viability 72 h (Venetoclax) | IC50, cell viability 72 h (Dasatinib) | IC50, cell viability 72 h (SG3199) | IC50, cell viability 72 h (AZD2811) | IC50, cell viability 72 h (SN-38) | IC50, cell viability 72 h (AZD0156) | IC50, cell viability 72 h (AZD4320) | IC50, cell viability 72 h (Alisertib) | IC50, cell viability 72 h (Etoposide) | IC50, cell viability 72 h (Gefitinib) | IC50, cell viability 72 h (Prexasertib) | IC50, cell viability 72 h (Doxorubicin) | IC50, cell viability 72 h (AZD5153) | IC50, cell viability 72 h (Lapatinib) | IC50, cell viability 72 h (AZD8186) | IC50, cell viability 72 h (Crizotinib) | IC50, cell viability 72 h (Savolitinib) | IC50, cell viability 72 h (AZD6738) | IC50, cell viability 72 h (AZD5991) | IC50, cell viability 72 h (AZD7648) | IC50, cell viability 72 h (Taselisib) | IC50, cell viability 72 h (Selumetinib) | IC50, cell viability 72 h (SRA737) | IC50, cell viability 72 h (MK-2206) | IC50, cell viability 72 h (Gemcitabine) | IC50, cell viability 72 h [1] | IC50, cell viability 72 h (Olaparib) | IC50, cell viability 72 h (5-Fluorouracil)
1 | NCI-H1299 (Non-Small Cell Lung Carcinoma) | > 10000 nM | > 10000 nM | 364 nM | 912 nM | 134 nM | > 10000 nM | > 300 nM | > 1000 nM | 1570 nM | > 1 nM | > 1000 nM | > 300 nM | > 3000 nM | > 1000 nM | > 10000 nM | > 10000 nM | > 10000 nM | 100 nM | 880 nM | 184 nM | > 10000 nM | > 10000 nM | > 10000 nM | > 1000 nM | 9870 nM | > 1000 nM | > 10000 nM | > 10000 nM | > 10000 nM | > 10000 nM | > 10000 nM | 239 nM | > 5000 nM | > 10000 nM | > 20000 nM
2 | SN12C (Kidney Carcinoma) | > 10000 nM | > 10000 nM | > 3000 nM | > 1000 nM | > 3000 nM | > 10000 nM | > 300 nM | > 1000 nM | > 2000 nM | > 1 nM | > 1000 nM | 290 nM | > 3000 nM | > 1000 nM | > 10000 nM | > 10000 nM | > 10000 nM | > 1000 nM | > 1000 nM | > 1000 nM | > 10000 nM | > 10000 nM | > 10000 nM | > 1000 nM | > 10000 nM | > 1000 nM | > 10000 nM | > 10000 nM | > 10000 nM | > 10000 nM | > 10000 nM | > 300 nM | > 5000 nM | > 10000 nM | > 20000 nM
3 | KARPAS-1106P (B-Cell Non-Hodgkin's Lymphoma) | > 10000 nM | > 10000 nM | 495 nM | > 1000 nM | 134 nM | > 10000 nM | > 300 nM | > 1000 nM | 213 nM | > 1 nM | > 1000 nM | 3.05 nM | > 3000 nM | > 1000 nM | > 10000 nM | 1790 nM | > 10000 nM | 11.2 nM | 146 nM | 132 nM | > 10000 nM | 705 nM | 4000 nM | > 1000 nM | 3960 nM | 127 nM | > 10000 nM | 462 nM | > 10000 nM | 2180 nM | > 10000 nM | 18.3 nM | > 5000 nM | > 10000 nM | > 20000 nM
